Test results as given in publication PMC6863955, “Quantitation of a Novel Engineered Anti-infective Host Defense Peptide, ARV-1502: Pharmacokinetic Study of Different Doses in Rats and Dogs” (Frontiers in Chemistry, 2019).
Where two headings read alike, the source gives them in different places. Non-standard residues stand in square brackets, D forms with d. Residues, ends and D or L forms follow the SMILES beside them. Ac6c = NC1(C(=O)O)CCCCC1

Tests used:
[1] = dog, in vivo
Method: (§1) The objective of the study conducted at ITR Laboratories Canada Inc (Baie d'Urfe, Quebec, Canada) was to determine the pharmacokinetic profile of ARV-1502 following single intravenous or intramuscular injection administration to Sprague-Dawley rats and Beagle dogs.
(§2) For the dog study, ARV-1502 was administered once IM (divided equally over 2 sites) and once IV (1 week apart) as detailed in Table 2. Following dosing, blood was collected at the same time points noted above for the rat study.
(§3) Aliquots of rat or Beagle plasma (20 μL) were spiked with standard peptide Onc72 (0.35 μg/mL plasma, 1.2 μL). Samples were diluted with aqueous TFA in two steps (0.2% v/v, 20 μL and 0.1% v/v, 260 μL) and loaded on an Oasis HLB 96-well-SPE-plate (5 mg sorbent per well, Waters). The samples were washed twice with aqueous TFA (0.1% v/v, 1 mL) and eluted in two steps with aqueous acetonitrile (30% v/v, 150 μL) containing formic acid (0.1% v/v). The fractions were dried in a vacuum centrifuge (SpeedVac, 60°C), reconstituted with aqueous methanol (75% v/v, 20 μL) containing formic acid (0.1% v/v), and diluted with aqueous acetonitrile (3% v/v, 100 μL) containing formic acid (0.1%).
(§4) A quadrupole-Orbitrap mass spectrometer (Q Exactive plus™, Thermo Scientific) was coupled online to an uHPLC (Vanquish™, Thermo Scientific). Separation was achieved on a Jupiter C18 column (inner diameter: 1 mm, length: 150 mm, particle size: 5 μm, pore size: 130 Å, Phenomenex Ltd.) at 55°C using a flow rate of 200 μL/min and a linear gradient of 3 to 23% (v/v) aqueous acetonitrile containing formic acid (0.1%) within 5 min.
(§5) ARV-1502 was quantitated by the peak area of an extracted ion chromatogram (XIC) obtained from the MS/MS using Xcalibur 4.0.27.21 software. The peak area of ARV-1502 corrected by using the peak area of Onc72.

in vivo [2] = settings: Beagle, dog
Method: as §1, §2, §3, §4, §5

in vivo [3] = settings: Sprague-Dawley, rat; for level at 0.5 h: plasma concentration after 30 min
Method: (§6) A series of eight blood samples (~0.5 mL each) was collected in rats on Day 1. Following IM administration, the blood was collected at 5, 15, 30, and 45 min and at 1, 1.5, 2, and 3-h post-dose. After IV administration, blood was collected at 2, 5, 15, 30, and 45 min and at 1, 1.5, and 2-h post-dose. Animals were euthanized after the last blood collection by carbon dioxide asphyxiation followed by cervical dislocation and discarded without further examination. Safety parameters monitored on the study were mortality and clinical signs. Body weights (BW) were recorded to calculate the dose only. Blood sampling was performed for pharmacokinetic evaluation.
as §3, §4
(§7) Pharmacokinetic datasets were evaluated with a PKSolver add-in for Microsoft Excel using a non-compartmental analysis (Zhang et al., [2010]).

[4] = rat, in vivo
Method: as §6, §3, §4, §7

Structure (SMILES): CC(C)C[C@H](NC(=O)[C@H](Cc1ccc(O)cc1)NC(=O)[C@@H]1CCCN1C(=O)[C@H](CCCNC(=N)N)NC(=O)[C@@H]1CCCN1C(=O)[C@H](CCCCN)NC(=O)[C@H](CC(=O)O)NC(=O)[C@@H]1CCCN1C(=O)[C@H](CCCNC(=N)N)NC(=O)C1(N)CCCCC1)C(=O)N1CCC[C@H]1C(=O)N[C@@H](CCCNC(=N)N)C(=O)N1CCC[C@H]1C(=O)N[C@@H](CCCNC(=N)N)C(=O)N1CCC[C@H]1C(=O)N1CCC[C@H]1C(=O)N[C@@H](CCCNC(=N)N)C(=O)N1CCC[C@H]1C(=O)N[C@H](C(=O)N[C@@H](CCCNC(=N)N)C(N)=O)C(C)C [ARV-1502, Chex1-Arg20 amide] (H-[Ac6c]RPDKPRPYLPRPRPPRPVR-NH2)
- clearance rate in dogs relative to the rate in rats [1]: around half
- volume of distribution after IM, fold larger than the BV [1]: more than 9 fold
- AUMC0→∞ ([1]; iv, 0.075 mg/kg): 820.3 μg·min^2/mL
- k ([1]; iv, 0.075 mg/kg): 0.09 min⁻¹
- volume of distribution as share of circulating blood volume (BV) ([1]; iv, 0.075 mg/kg): ~ 84%
- plasma concentration 2 min after administration ([1]; male, Beagle, iv, 75 ug/kg, 2 min): 0.69 ± 0.15 µg/mL
- half-life (in vivo [2]; im): 15.8 min
- Vd (in vivo [2]; im, 0.75 mg/kg): 8.14 L
- C0 (in vivo [2]; iv, 0.075 mg/kg): 1040 ng/mL
- Cmax (in vivo [2]; iv, 0.075 mg/kg): 700 ng/mL
- MRT (in vivo [2]; iv, 0.075 mg/kg): 7.07 min
- Vd (in vivo [2]; iv, 0.075 mg/kg): 0.735 L
- half-life (in vivo [2]; iv, 0.075 mg/kg): 7.6 min
- Cmax (in vivo [2]; male, im, 0.75 mg/kg): 1000 ng/mL
- Tmax (in vivo [2]; male, im, 0.75 mg/kg): 15 min
- level at 5 min (in vivo [2]; male, im, 0.75 mg/kg, plasma concentration at 5 min): 940 ± 280 ng/mL
- level at 0.25 h (in vivo [2]; male, im, 0.75 mg/kg, plasma concentration at 15 min): 1100 ± 200 ng/mL
- AUC(0-inf) (in vivo [2]; male, iv, 0.075 mg/kg): 144 ng·h/mL
- level at 2 min (in vivo [2]; male, iv, 75 ug/kg, plasma concentration 2 min after administration): 700 ng/mL
- level at 0.5 h (in vivo [2]; male, iv, 75 ug/kg, plasma concentration after 30 min): 7.6 ± 1.3 ng/mL
- half-life (in vivo [3]; im): 24.2 min
- MRT (in vivo [3]; iv, 0.25 mg/kg): 6.22 min
- half-life (in vivo [3]; iv, 0.25 mg/kg): 15.4 min
- Cmax (in vivo [3]; both, im, 2.5 mg/kg): 12000 ng/mL
- Tmax (in vivo [3]; both, im, 2.5 mg/kg): 15 min
- level at 5 min (in vivo [3]; both, im, 2.5 mg/kg, plasma concentration after 5 min): 11000 ± 3300 ng/mL
- level at 0.5 h (in vivo [3]; both, im, 2.5 mg/kg): ~900 ng/mL
- level at 3 h (in vivo [3]; both, im, 2.5 mg/kg, plasma concentration within 3 h): 16 ng/mL
- AUC(0-inf) (in vivo [3]; both, iv, 0.25 mg/kg): 521 ng·h/mL
- Cmax (in vivo [3]; both, iv, 0.25 mg/kg): 3410 ng/mL
- Tmax (in vivo [3]; both, iv, 0.25 mg/kg): 2 min
- level at 0.5 h (in vivo [3]; both, iv, 0.25 mg/kg): 64.2 ± 7.3 ng/mL
- level at 2 h (in vivo [3]; both, iv, 0.25 mg/kg, plasma concentration after 2 h): 2 to 4 ng/mL
- level at 5 min (in vivo [3]; female, im, 2.5 mg/kg, plasma concentration after 5 min (initial peptide level)): 13800 ± 1900 ng/mL
- level at 0.25 h (in vivo [3]; female, im, 2.5 mg/kg, plasma concentration at 15 min): 19000 ± 4900 ng/mL
- level at 5 min (in vivo [3]; male, im, 2.5 mg/kg, plasma concentration after 5 min (initial peptide level)): 8200 ± 1400 ng/mL
- level at 0.5 h (in vivo [3]; male, im, 2.5 mg/kg): 1000 ng/mL
- plasma concentration after 2 h ([4]; both, Sprague-Dawley, iv, 0.25 mg/kg, 2 h): 2.2 ± 0.4 ng/mL
- Cmax extrapolated in proportion to dose [4]: ~ 34 μg/mL
- volume of distribution after IM, fold higher than after IV [4]: more than 4 fold
- AUMC0→∞ ([4]; iv, 0.25 mg/kg): 194.6 μg·min^2/mL
- k ([4]; iv, 0.25 mg/kg): 0.045 min⁻¹
- plasma concentration lower in male rats than in female rats ([4]; iv, 0.25 mg/kg): around 25%
- volume of distribution as share of the theoretical circulating blood volume ([4]; iv, 0.25 mg/kg): 85%
